Results published in patent publication US11583545B2, “Parasiticidal compositions comprising eprinomectin and praziquantel, methods and uses thereof” (BOEHRINGER INGELHEIM ANIMAL HEALTH USA INC., priority 2018, dated 2023).

Assays:
[1] = Stability study of topical solution in the market container (HPLC, 30° C./65% RH); type: physicochemical; settings: in formulation of Example 1, two runs
in vivo = settings: cat
[2] = in vivo
[3] = Pharmacokinetic assessment in cats after administration of the formulation of Example 1; settings: blood of cats; after administration of formulation of Example 1

| Compound | average % label claim ([1]; time point 0 month) [% LC] | average % label claim ([1]; time point 3 months) [% LC] | average % label claim ([1]; time point 6 months) [% LC] | average % label claim ([1]; time point 9 months) [% LC] | average % label claim ([1]; time point 12 months) [% LC] | average % label claim ([1]; time point 18 months) [% LC] | half-life (in vivo) [h] | time at which Cmax is reached [2] [h] | terminal half-life [3] [h] |
| --- | --- | --- | --- | --- | --- | --- | --- | --- | --- |
| O=C(C1CCCCC1)N1CC(=O)N2CCc3ccccc3C2C1 (stereo not drawn) [Praziquantel, praziquantel] | 99.52 | 97.38 | 97.74 | 98.44 | 98.36 | 97.04 | 73.9 | 6 |  |
| Eprinomectin | 99.33 | 97.92 | 97.61 | 98.40 | 98.50 | 96.48 |  |  | 114 |
